Source: US12673025B2, “Pegylated liposomes and uses thereof” (LT BIOPHARMA INC., priority 2024, dated 2026)
In brackets after ≈: the same amount, converted by molar mass. Like-named read-outs stand apart in the source and are kept apart here.

What was measured:
[1] = system: Staphylococcus aureus (ATCC19636); experiment: MIC broth microdilution assay; type: cell-based
[2] = system: Pseudomonas aeruginosa ATCC 27853; experiment: MIC broth microdilution assay; type: cell-based; details: for antibacterial activity: Pseudomonas aeruginosa (ATCC278533); for MIC: ATCC27853
Method: (§1) For the purpose of antimicrobial activity evaluation of liposome encapsulated nosiheptide, bacteria strain was cultivated in tryptic soy broth (Difco, Becton, Dickinson, Sparks, MD) or brain heart infusion broth (Difco, Becton, Dickinson, Sparks, MD) at 37° C. for 16˜18 hours to the stationary phase. After that, 1000 μl of inoculums were treated to 15 ml tryptic soy broth medium and incubated at 37° C. for 3˜4 hours. Bacteria counts were determined to 5×10^5 CFU/ml for antimicrobial activity via absorbance value of OD600 (1 OD600=1×10^8 CFU/ml) by spectrophotometer. (Ultraspec 2100 Pro, UV/Visible spectrophotometer, Biochrom, Massachusetts, USA)
(§2) The minimum inhibitory concentration values of peptides and liposome encapsulated peptides were evaluated by standard broth microdilution assay which was referred to the guideline of the Clinical and Laboratory Standards Institute (CLSI) (M27-A4., C.a.L.S.I.a.s.t.e.C.d., Reference method for broth dilution antifungal susceptibility testing of yeasts. Clinical and Laboratory Standards Institute, Wayne, PA., 2017). MIC assays were carried out with initial bacterial inoculum of 5×10^5 colony forming units (CFU/ml) in suitable medium. Peptides and liposome encapsulated peptides were added to polystyrene 96-well plates with serial dilution. Vancomycin-Resistant Staphylococcus aureus (VRSA01), Staphylococcus aureus (ATCC29213), Staphylococcus aureus (ATCC33591), Pseudomonas aeruginosa (ATCC278533) were cultivated in TSB broth. MICs was preliminarily defined as the lowest concentration of peptides which inhibited the 90% visible growth of bacteria.
(§3) The concentration-diluted peptide was treated 1 μl in 96-well plates. Subsequently, 99 μl medium which containing 5×10^5 CFU/ml bacteria inoculum were loaded individually in each wells, the serial-diluted concentration of peptide were from 8 to 0.0625 μg/ml. Evaluation of bacterial growth were performed by measuring the OD at 600 nm in a microplate reader (TECAN, Sunrise™) over 16 hours at 37° C. Medium-treated wells were used as the control, and all experiments were carried out in triplicate.

[3] = system: Staphylococcus aureus (ATCC29213); experiment: MIC broth microdilution assay; type: cell-based
Method: as §1, §2, §3

[4] = system: Vancomycin-Resistant Staphylococcus aureus (VRSA01); experiment: MIC broth microdilution assay; type: cell-based
Method: as §1, §2, §3

[5] = system: Staphylococcus aureus (ATCC33591); experiment: MIC broth microdilution assay; type: cell-based
Method: as §1, §2, §3

[6] = system: Staphylococcus aureus (ATCC33591); experiment: Murine model of i.v. S. aureus infection (survival); type: in vivo, mice; details: 20 mg/kg i.v. at 1 and 8 hours after infection
Method: Establishment of murine injection model of was assessed to test in vivo efficacy of nosiheptide liposome. Eight-week-old female ICR mice (LASCO, Taipei, Taiwan) were injected i.v. with 1×10^9 CFU/ml of Staphylococcus aureus (ATCC33591) strain in PBS buffer (pH=7.42).

HFW cells = experiment: MTT cell viability assay; type: cell-based; details: HFW normal cells, 24 h
Method: (§4) The MTT assay was performed to determine cell viability. 5×10^3 cells per well with 100 μl cell medium were plated in 96-well plates, incubating for 24 hours. Then, the cell medium in plates was removed and each well was treated medium with free nosiheptide or liposome encapsulated nosiheptide in serial-diluted concentration from 3.125 to 50 μM. The medium with PBS buffer was regarded as the control group. After incubating 24 hours, the medium was removed and 100 μl medium-diluted 10% MTT was added in the 96 well plate. After incubation for 3 hours, the MTT solution was removed and the residual formazan crystal was dissolved with 100 μl DMSO (Dimethyl sulfoxide, Sigma Aldrich). The cell viability was determined by measuring the absorbance at 570 nm using ELISA Reader (TECAN, Sunrise™), and the data was calculated by the following formula: […]
(§5) The range of IC50 values was obtained by observing the curve, and all experiments were carried out in triplicate.

A549 cells = experiment: MTT cell viability assay; type: cell-based; details: Homo sapiens, A549 lung cancer cells, 24 h
Method: as §4, §5

VRSA 01 = experiment: Time-kill analysis; type: cell-based, Staphylococcus aureus; details: ¼×MIC
Method: The antimicrobial activity of nosiheptide and nosiheptide liposome against VRSA 01 were assessed by time-kill analysis. VRSA 01 was cultured in TSB medium overnight. After that, fresh TSB was inoculated for growth to mid-logarithmic phase. Bacteria was added at starting inoculum of 5×10^9 CFU/ml. Nosiheptide and nosiheptide liposome were added to final concentrations with 1×MIC and ¼×MIC, the value of MICs were determined in previous experiments. Bacteria with only medium was regarded as the grown control. The cultures were incubated in 37° C. shaking incubator, and aliquots were removed from each tube at 1, 2, 4, 8, 24 hours and serially diluted for CFU enumeration on TSA plates. To compare rates of antibiotic killing, the decline of viable bacteria (Log10 CFU/ml) was evaluated at the measured time points. Experiments were repeated independently in triplicate. The lower limit of detection for the colony counts was 2 log10 CFU/ml.

Row | Structure (SMILES) | MIC [1] [µg/mL] | antibacterial activity [1] | antibacterial activity [2] | MIC ([2]; Pseudomonas aeruginosa) [µg/mL] | MIC [3] [µg/mL] | MIC ([4]; Staphylococcus aureus) [µg/mL] | MIC [5] [µg/mL] | survival rate ([6]; end of study (7 days)) [%] | mice died during the first two days ([6]; first two days) | MIC ([1]; read-out: MIC) [µg/mL] | MIC ([2]; Pseudomonas aeruginosa ATCC 27853, read-out: MIC) [µg/mL] | MIC ([3]; read-out: MIC) [µg/mL] | MIC ([4]; Vancomycin Resistant Staphylococcus aureus 01, read-out: MIC) [µg/mL] | MIC ([5]; read-out: MIC) [µg/mL] | IC50 (HFW cells) [µM] | IC50 (A549 cells) [µM] | time to 2-log kill (VRSA 01) [hours]
1 | C=C(NC(=O)C(=C)NC(=O)c1csc(C2=N[C@@H]3c4csc(n4)[C@H]4NC(=O)c5csc(n5)[C@H]([C@](C)(O)[C@@H](C)O)NC(=O)[C@H]5CSC(=N5)/C(=C/C)NC(=O)[C@H]([C@@H](C)O)NC(=O)c5csc(n5)[C@]3(CC2)NC(=O)[C@H](C)NC(=O)C(=C)NC(=O)[C@H](C)NC(=O)[C@H]([C@@H](C)CC)N[C@@H]2C=Cc3c([C@H](C)O)cc(nc3[C@H]2O)C(=O)O[C@@H]4C)n1)C(N)=O [Thiostrepton Free, Thiostrepton] | > 8 | no antibacterial activity | no antibacterial activity | > 8 | 0.625 (≈ 0.375 µM) | 0.25 (≈ 0.15 µM) | 0.625 (≈ 0.375 µM) | – | – | – | – | – | – | – | – | – | –
2 | C=C(NC(=O)c1csc(-c2nc3c(cc2O)-c2nc(cs2)C(=O)NC(C(C)O)C(=O)N/C(=C\C)c2nc(cs2)C(=O)NC2CC(O)C(=O)OCc4cccc5[nH]c(c(C)c45)C(=O)SCC(NC(=O)c4csc2n4)c2nc-3cs2)n1)C(N)=O (stereo not shown) [Nosiheptide Free, Nosiheptide] | – | no antibacterial activity | no antibacterial activity | – | – | – | – | 62.5 | ⅜ | > 8 | > 8 | 0.125 (≈ 0.102 µM) | 0.0625 (≈ 0.0511 µM) | 0.0625 (≈ 0.0511 µM) | 28.3 ± 9.23 | 26.2 ± 5.26 | 4
